From patent US6645976B1 (Eli Lilly and Company, priority 1994, dated 2003)

Legend:
[1] = molecular target: T1, recombinant human secreted phospholipase A2 (Homo sapiens, UniProt P14555); experiment: sPLA2 Chromogenic Assay (Assay 1); type: biochemical; conditions: diheptanoyl thio-PC substrate, pH 7.5, 40° C. for 30 minutes, absorbance at 405 nanometers
T1 sequence (P14555 21-144): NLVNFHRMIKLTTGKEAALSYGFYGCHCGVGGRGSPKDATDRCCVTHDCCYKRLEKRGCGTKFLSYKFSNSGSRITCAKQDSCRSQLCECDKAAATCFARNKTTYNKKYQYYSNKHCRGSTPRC
Description: The following chromogenic assay procedure was used to identify and evaluate inhibitors of recombinant human secreted phospholipase A2. The assay described herein has been adapted for high volume screening using 96 well microtiter plates.
A measured volume of racemic dipheptanoyl thio PC supplied in chloroform at a concentration of 100 mg/ml is taken to dryness and redissolved in 10 millimolar TRITON X-100™ nonionic detergent aqueous solution. Reaction Buffer is added to the solution, then DTNB to give the Reaction Mixture.
The reaction mixture thus obtained contains 1 mM diheptanoyl thio-PC substrate, 0.29 mm Triton X-100™ detergent, and 0.12 mm DTMB in a buffered aqueous solution at pH 7.5.
1. Add 0.2 ml reaction mixture to all wells;
2. Add 10 ul test compound (or solvent blank) to appropriate wells, mix 20 seconds;
3. Add 50 nanograms of sPLA2 (10 microliters) to appropriate wells;
4. Incubate plate at 40° C. for 30 minutes;
All compounds were tested in triplicate. […] Each sample was titrated in triplicate and result values were averaged for plotting and calculation of IC50 values.

SMILES | melting point | IC50 [1]
CCc1c(C(=O)C(N)=O)c2c(OCC(=O)OCCN3CCOCC3)cccn2c1Cc1ccccc1-c1ccccc1 [Compound 59i, 2-(3-(Biphenyl-2-yl-methyl)-2-ethyl-8-(2-morpholinoethyloxycarbonylmethyloxy)indolizine-1-yl)glyoxylamide] | 113 to 120 °C (dec.) | 22 nM
CCc1c(C(=O)C(N)=O)c2c(OCC(=O)O)cccn2c1CCCc1ccccc1 [Compound 58i, 2-(8-Carboxymethyloxy-2-ethyl-3-(3-phenyl-2-propanyl)indlolin-1-yl)glyoxylamide] | 215 to 217 °C | 51 nM
CCc1c(C(=O)C(N)=O)c2c(OCC(=O)OC)cccn2c1Cc1ccc2ccccc2c1 [Compound 51g, 2-(8-(Carbomethoxymethyloxy)-2-ethyl-3-(naphth-2-ylmethyl)indolizin-1-yl)glyoxylamide] | 195 to 196 °C | 170 nM
Cc1c(C(=O)C(N)=O)c2ccccn2c1Cc1ccccc1 [Compound 34, (3-Benzyl-2-methylindolizin-1-yl)glyoxylamide] | 198 to 199 °C | 890 nM
NC(=O)C(=O)c1c(C2CC2)c(Cc2cccc3ccccc23)n2cccc(OCC(=O)O)c12 [Compound 58j, 2-(8-carboxymethoxyl-2-cyclopropyl-3-(1-naphthylmethyl)indlolin-1-yl)glyoxylamide] | 205 to 207 °C | 23 nM
CC(C)(C)c1c(C(=O)C(N)=O)c2c(OCC(=O)O)cccn2c1Cc1ccccc1-c1ccccc1 [Compound 58e, 2-(2-t-Butyl-8-carboxymethoxyl-3-(o-phenylbenzyl)indlolin-1-yl)glyoxylamide] | 221 to 222 °C | 100 nM
CCc1c(C(=O)C(N)=O)c2c(OCc3ccccc3)cccn2c1Cc1cccs1 [Compound 49k, 2-(8-Benzyloxy-2-ethyl-3-(thiophen-2-ylmethyl)indolizin-1-yl)glyoxylamide] | 191 to 192 °C | 790 nM
CCc1c(C(=O)C(N)=O)c2c(OCCC(=O)OC)cccn2c1Cc1ccccc1-c1ccccc1 [Compound 70c, 2-(3-(Biphenyl-2-yl-methyl)-8-(2-carbomethoxyethyloxy)-2-ethylindolizine-1-yl)glyoxylamide] | 159 to 162 °C | 130 nM
CCc1c(C(=O)C(N)=O)c2c(OCC(=O)OC)cccn2c1Cc1ccccc1Cc1ccccc1 [Compound 51j] | 190 to 191 °C | 20 nM
CCc1c(C(=O)C(N)=O)c2c(OCC(=O)O)cccn2c1Cc1cccc(-c2ccccc2)c1 [Compound 58g, 2-(8-Carboxymethyloxy-2-ethyl-3-(m-phenylbenzyl)indlolin-1-yl)glyoxylamide] | 241 to 244 °C | 9 nM
Cc1c(C(=O)C(N)=O)c2c(OCc3ccccn3)cccn2c1Cc1ccccc1-c1ccccc1 [Compound 59n, 2-(3-Biphenyl-2-ylmethyl-2-methyl-8-(pyridin-2-ylmethoxy)-indolizin-1-yl)-glyoxylamide] | 196 to 197 °C | 600 nM
CCCC(CCC)Cc1c(CC)c(C(=O)C(N)=O)c2c(OCC(=O)OC)cccn12 [Compound 51f, 2-(8-(Carbomethoxymethyloxy)-2-ethyl-3-(2-propylpentyl)indolizin-1-yl)glyoxylamide] | 114 to 115 °C | 590 nM
CCc1c(C(=O)C(N)=O)c2c(OCc3nnn[nH]3)cccn2c1Cc1ccccc1-c1ccccc1 [Compound 59m, 2-(3-(Biphenyl-2-yl-methyl)-2-ethyl-8-(1H-tetracol-5-ylmethyloxy)indolizine-1-yl)glyoxylamide] | 206 to 209 °C (dec.) | 7 nM
CCCC(CCC)Cc1c(CC)c(C(=O)C(N)=O)c2c(OCC(=O)O)cccn12 [Compound 52f, 2-(8-Carboxymethyloxy-2-ethyl-3-(2-propylpentyl)indolizin-1-yl)glyoxylamide] | 176 to 177 °C | 17 nM
CCCCc1ccc(Cc2c(CC)c(C(=O)C(N)=O)c3c(OC)cccn23)cc1 [Compound 49s, 2-(3-(p-n-Butylbenzyl)-2-ethyl-8-methoxyindolizin-1-yl)glyoxylamide] | 195 to 196 °C | 360 nM
CCOC(=O)COc1cccn2c(Cc3ccccc3)c(CC)c(C(=O)C(N)=O)c12 [Compound 37a, (3-Benzyl-8-(carbethoxymethyloxy)-2-ethylindolizin-1-yl)glyoxylamide] | 191 to 192 °C | 44 nM
Cc1c(C(=O)C(N)=O)c2c(OCc3ccc4ccccc4n3)cccn2c1Cc1ccccc1-c1ccccc1 [Compound 59p, 2-(3-Biphenyl-2-ylmethyl-2-methyl-8-(quinolin-2-ylmethoxy)-indolizin-1-yl)-glyoxylamide] | 165 to 167 °C | 200 nM
COC(=O)COc1cccn2c(CC3CCCCC3)c(C)c(C(=O)C(N)=O)c12 [Compound 51t] | 177 to 178 °C | 130 nM

SMILES | melting point | IC50 [1]
CCc1c(C(=O)C(N)=O)c2c(OCC(=O)OC)cccn2c1CC1CCCCC1 [Compound 51b, 2-(8-(Carbomethoxymethyloxy)-3-cyclohexylmethyl-2-ethylindolizin-1-yl)glyoxylamide] | 149 to 150 °C | 310 nM
CCc1c(C(=O)C(N)=O)c2c(OCC(=O)OC(C)(C)C)cccn2c1Cc1ccccc1 [Compound 38a, (3-Benzyl-8-(t-butoxycarbonylmethyloxy)-2-ethylindolizin-1-yl)glyoxylamide] | 161 to 162 °C | 52 nM
CCc1c(C(=O)C(N)=O)c2c(OCC(=O)OCC(=O)OC(C)(C)C)cccn2c1Cc1ccccc1-c1ccccc1 [Compound 59d] | 102 to 104 °C | 83 nM
NC(=O)C(=O)c1c(C2CC2)c(CC2CCCCC2)n2cccc(OCC(=O)O)c12 [Compound 58k, 2-(8-carboxymethoxyl-3-cyclohexylmethyl-2-cyclopropylindolizin-1-yl)glyoxylamide] | 229 to 234 °C | 43 nM
CCc1c(C(=O)C(N)=O)c2c(OCC(=O)O)cccn2c1CC=Cc1ccccc1 [Compound 58h, 2-(8-Carboxymethyloxy-2-ethyl-^3-(3-phenyl-2-propenyl)indlolin-1-yl)glyoxylamide] | 222 to 224 °C | 38 nM
Cc1c(C(=O)C(N)=O)c2c(OCc3ccncc3)cccn2c1Cc1ccccc1-c1ccccc1 [Compound 59o, 2-(3-Biphenyl-2-ylmethyl-2-methyl-8-(pyridin-4-ylmethoxy)-indolizin-1-yl)-glyoxylamide] | 195 to 197 °C | 490 nM
CCc1c(C(=O)C(N)=O)c2c(OCC(=O)OC)cccn2c1CC1CCCC1 [Compound 51c, 2-(8-(Carbomethoxymethyloxy)-3-cyclopentylmethyl-2-ethylindolizin-1-yl)glyoxylamide] | 158 to 159 °C | 430 nM
CCc1c(C(=O)C(N)=O)c2c(OCc3ccccc3)cccn2c1Cc1ccccc1 [Compound 35a, (3-Benzyl-8-benzyloxy-2-ethylindolizin-1-yl)glyoxylamide] | 188 to 189 °C | 400 nM
CCOC(=O)COc1cccn2c(Cc3ccccc3)c(C)c(C(=O)C(N)=O)c12 [Compound 37g, (3-Benzyl-8-(carbethoxymethyloxy)-2-methylindolizin-1-yl)glyoxylamide] | 193 to 195 °C | 23 nM
CCc1c(CC(N)=O)c2c(OCC(=O)OCc3ccccc3)cccn2c1Cc1cccc(Cl)c1 [Compound 21y, 2-(8-(Benzyloxycarbonylmethyloxy)-3-(m-chlorobenzyl)-2-ethylindolizin-1-yl)acetamide] | 157 to 158 °C | 350 nM
Cc1c(C(=O)C(N)=O)c2c(OCc3ccccc3)cccn2c1Cc1ccccc1 [Compound 35g, (3-Benzyl-8-benzyloxy-2-methylindolizin-1-yl)glyoxylamide] | 212 to 214 °C | 47 nM
CCc1c(C(=O)C(N)=O)c2c(OCC(=O)OCC(C)=O)cccn2c1Cc1ccccc1-c1ccccc1 [Compound 59k, 2-(3-(Biphenyl-2-yl-methyl)-2-ethyl-8-(2-oxopropyloxycarbonylmethoxy)indolizine-1-yl)glyoxylamide] | 159 to 162 °C | 113 nM
CCc1c(C(=O)C(N)=O)c2c(OCC(=O)OC)cccn2c1Cc1cccc(OC)c1 [Compound 51m, 2-(2-Ethyl-8-(carbomethoxymethyloxy)-3-(m-methoxybenzyl)indolizine-1-yl)glyoxylamide] | 155 to 157 °C | 310 nM
CCc1c(C(=O)C(N)=O)c2c(OCC(=O)O)cccn2c1Cc1sccc1-c1cccs1 [Compound 52l, 2-(8-(Carboxymethyloxy)-2-ethyl-3-((3-thiophen-2-yl)thiophen-2-ylmethyl)indolizin-1-yl)glyoxylamide] | 209 to 210 °C | 10 nM
NC(=O)C(=O)c1c(C2CCCC2)c(Cc2ccccc2-c2ccccc2)n2cccc(OCC(=O)O)c12 [Compound 58f, 2-(8-Carboxymethyloxy-2-cyclopentyl-3-(o-phenylbenzyl)indlolin-1-yl)glyoxylamide] | 147 to 148 °C | 280 nM
CCc1c(C(=O)C(=O)N(C)C)c2c(OCC(=O)O)cccn2c1Cc1ccccc1-c1ccccc1 [Compound 40f, (8-(Carboxymethyloxy)-2-ethyl-3-(o-phenylbenzyl)indolizin-1-yl)glyoxyl-N,N-dimethylamide] | 208 to 209 °C | > 50000 nM
CCc1c(C(=O)C(N)=O)c2c(OCC(=O)OC(C)OC(=O)OC3CCCC3)cccn2c1Cc1ccccc1-c1ccccc1 (stereo not shown) [Compound 59g, 2-(3-Biphenyl-2-ylmethyl-8-(1-cyclopentyloxycarbonyloxyethyloxycarbonylmethyloxy)-2-ethylindolizin-1-yl)glyoxylamide] | 74 to 80 °C | 39 nM
